Source: patent US20240368163A1, “COMPOUNDS AND METHODS FOR MODULATING SPLICING” (REMIX THERAPEUTICS INC., priority 2021, published 2024)

Experiments:
Assay type in all cases: cell-based, human
MYB [1] = experiment: HiBiT protein abundance assay, MYB; details: Homo sapiens, K562, 24 h, modified K562 cells
Description: (§1) Compounds described herein were used to screen for effects on quantitative protein abundance using a HiBit assay system (Promega). Quantitative protein abundance was determined by measuring the protein levels of HiBit-tagged protein targets expressed in cell culture via luminescence using the Nano-Glo HiBiT Lytic Detection System, which uses a split complementation assay format to reconstitute NanoBiT enzyme to generate a luminescent signal. A protein abundance assay was developed such that endogenous protein targets could be modified with the HiBiT peptide tag and their abundance could be assessed after compound treatment. Briefly, K562 cell lines containing a HiBiT-modification were treated with various compounds described herein (e.g., compounds of Formulas (I), (II), or (III)). After treatment for 24 hours, the protein abundance of a specific target was determined by measuring luminescence.
(§2) Cells were maintained in IMIDM with 10% FBS. Before the assay, cells were diluted with […] growth media (IMIDM+[…] media) and were seeded in a 384-well plate at a density of 10000 cells/well (for each cell line listed in Table 12). Each compound was prepared as a 10-point 3-fold serial dilution in DMSO with the top dose at a final concentration of 10 μM in the well. Unmodified K562 cells were added at the previously specified density with DMSO to serve as an assay baseline and positive control (PC) and DMSO only with the respective modified cell lines was added to the negative control (NC) columns. Final DMSO concentration was kept at or below 0.25%. Treated cell plates were placed in an incubator at 37° C. with 5% CO2 for 24 hours. After 24 hours, 25 μL of Complete HiBit Lytic reagent was added to each well at room temperature (e.g. one plate requiring 10 mL Lytic Buffer, 100 μL LgBiT Protein, 200 μL Lytic Substrate), shaken for 5 minutes at 600 RPM, then left to sit for 10 minutes for signal to stabilize before reading on a Spark Cyto plate reader (Tecan) with a 500 ms measurement time.
(§3) To determine compound effects on protein abundance of each target in Table 12, the percent response for each respective cell line was calculated at each compound concentration as follows:
(§4) For the normalized response at each concentration, a four-parameter logistical regression was fit to the data and the response was interpolated at the 50% value to determine a concentration for protein abundance at 50% (IC50) the untreated control.

HTT = experiment: HiBiT protein abundance assay, HTT; details: Homo sapiens, K562, 24 h, modified K562 cells
Description: as §1, §2, §3, §4

Target C = experiment: HiBiT protein abundance assay, Target C; details: Homo sapiens, K562, 24 h, modified K562 cells
Description: • Promega Nano-Glo HiBiT Lytic Detection System (cat #N3030) • Coming 384-well TC-treated microplates (cat #3570) • Synthego Engineered Cells Knock-In Clones
as §2, §3, §4

MYB [2] = experiment: Splicing RT-qPCR assay, MYB mRNA canonical junction (CJ) and alternative junction (AJ); details: Homo sapiens; for AC50: increase in AJ mRNA
Description: Compounds described herein were used to modulate RNA transcript abundance in cells. The expression of a target mRNA was measured by detecting the formation of an exon-exon junction in the canonical transcript (CJ). A compound mediated exon-inclusion event was detected by observing an increase in formation of a new junction with an alternative exon (AJ). Real-time qPCR assays were used to detect these splicing switches and interrogate the potency of various compounds towards different target genes. A high-throughput real time quantitative PCR (RT-qPCR) assay was developed to measure these two isoforms of the mRNA (CJ and AJ) for exemplary genes, such as HTT, SMN2, and MYB, together with a control housekeeping gene, GAPDH or GUSB or PPIA, used for normalization. Briefly, the A673 or K562 cell line was treated with various compounds described herein (e.g., compounds of Formula (I)). After treatment, the levels of the HTT, MYB, or SMN2 mRNA targets were determined from each sample of cell lysate by cDNA synthesis followed by qPCR.
The A673 cell line was cultured in DMEM with 10% FBS. Cells were diluted with full growth media and plated in a 96-well plate (15,000 cells in 100 ul media per well). The plate was incubated at 37° C. with 5% CO2 for 24 hours to allow cells to adhere. An 11-point 3-fold serial dilution of the compounds was made in DMSO then diluted in media in an intermediate plate. Compounds were transferred from the intermediate plate to the cell plate with the top dose at a final concentration of 10 uM in the well. Final DMSO concentration was kept at or below 0.25%. The cell plate was returned to the incubator at 37° C. with 5% CO2 for an additional 24 hours.
The K562 cell line was cultured in IMDM with 10% FBS. For K562, cells were diluted with full growth media and plated in either a 96-well plate (50,000 cells in 50 uL media per well) or a 384-well plate (8,000-40,000 cells in 45 uL media per well). An 11-point 3-fold serial dilution of the compounds were made in DMSO then diluted in media in an intermediate plate. Compound was transferred from the intermediate plate to the cell plate with the top dose at a final concentration of 10 uM in the well. Final DMSO concentration was kept at or below 0.25%. Final volume was 100 uL for 96-well plate and 50 uL for 384-well plate. The cell plate was then placed in an incubator at 37° C. with 5% CO2 for 24 hours.
The cells were then gently washed with 50 uL-100 uL cold PBS before proceeding to addition of lysis buffer. 30 uL-50 μL of room temperature lysis buffer with DNAse I (and optionally RNAsin) was added to each well. Cells were shaken/mixed thoroughly at room temperature for 5-10 minutes for lysis to take place and then 3 uL-5 μL of room temperature stop solution was added and wells were shaken/mixed again. After 2-5 minutes, the cell lysate plate was transferred to ice for RT-qPCR reaction setup. The lysates could also be frozen at −80° C. for later use.
In some cases, a direct lysis buffer was used. An appropriate volume of 3× lysis buffer (10 mM Tris, 150 mM NaCl, 1.5%-2.5% Igepal and 0.1-1 U/uL RNAsin, pH 7.4) was directly added to either K562 or A673 cells in media and mixed by pipetting 3 times. The plates were then incubated at room temperature with shaking/rocking for 20-50 minutes to allow for lysis to take place. After this time, the cell lysate plate was transferred to ice to set up for the RT-qPCR reactions. The lysates could also be frozen at −80° C. for later use.
To set up 10 uL RT-qPCR reactions, cell lysates were transferred to 384-well qPCR plates containing the master mix according to the table below. The plates were sealed, gently vortexed, and spun down before the run. The volumes were adjusted accordingly in some instances where the reaction was carried in 20 μL. The table below summarizes the components of the RT-qPCR reactions:
The RT-qPCR reaction was performed using a QuantStudio (ThermoFisher) under the following fast cycling conditions. […]

[3] = 24 h, decrease in CJ mRNA, A673 or K562 cells, 24 hours treatment, RT-qPCR, read-out: MYB CJ IC50
[4] = 24 h, A673 or K562 cells, 24 hours treatment, RT-qPCR
[5] = RT-qPCR panel, canonical junction mRNA, compound concentration having 50% response in CJ decrease, read-out: MYB IC50 (decrease in CJ mRNA levels)

SMILES | IC50 (MYB [1]; Table 13A) | IC50 (HTT; Table 13A) | IC50 (Target C; Table 13A) | IC50 (MYB [2]; [3]) | AC50 (MYB [2]; [4]) | IC50 (MYB [2]; [5]) | IC50 (MYB [2]; gene panel, CJ qPCR, protocol of Example 142, read-out: MYB IC50 (decrease in CJ mRNA levels)) | IC50 (MYB [1]; Table 13B) | IC50 (HTT; Table 13B) | IC50 (Target C; Table 13B)
c1cnn(-c2ccc(-c3ccc(O[C@@H]4C[C@H]5CC[C@@H](C4)N5)nn3)c3[nH]ncc23)c1 [Compound 152] | 0.1 to 1 µM | < 0.1 µM | < 0.1 µM | – | – | – | – | – | – | –
c1nc2c(-c3cn[nH]c3)ccc(-c3ccc(O[C@@H]4C[C@H]5CCC[C@@H](C4)N5)nn3)c2s1 [Compound 209] | 0.1 to 1 µM | < 0.1 µM | < 0.1 µM | – | – | – | – | – | – | –
CN(c1ccc(-c2ccc(-n3cccn3)c3cc[nH]c23)nn1)[C@@H]1C[C@H]2CC[C@@H](C1)N2 [Compound 113] | 1 to 10 µM | 1 to 10 µM | 1 to 10 µM | > 10 µM | > 10 µM | > 10 µM | – | – | – | –
C[C@@H]1C[C@H](N(C)c2ccc(-c3ccc(-n4cccn4)c4cn[nH]c34)nn2)CCN1 [Compound 103] | 1 to 10 µM | 1 to 10 µM | 1 to 10 µM | – | – | – | – | – | – | –
c1nc2c(-c3cn[nH]c3)ccc(-c3ccc(N4C[C@H]5CNC[C@H]5C4)nn3)c2s1 [Compound 282] | 1 to 10 µM | 1 to 10 µM | > 10 µM | – | – | – | – | – | – | –
C[C@@H]1C[C@H](N(C)c2ccc(-c3ccc(-c4cn[nH]c4)c4cn[nH]c34)nn2)CCN1 [Compound 101] | 1 to 10 µM | 1 to 10 µM | 1 to 10 µM | – | – | – | – | – | – | –
CN(c1ccc(-c2ccc(-c3cn(C)nn3)c3cn[nH]c23)nn1)[C@@H]1C[C@H]2CC[C@@H](C1)N2 [Compound 165] | 1 to 10 µM | 1 to 10 µM | 1 to 10 µM | – | – | – | – | – | – | –
C[C@H]1C[C@@H](N(C)c2ccc(-c3ccc(-c4cn[nH]c4)c4cc[nH]c34)nn2)CCN1 [Compound 108] | > 10 µM | > 10 µM | > 10 µM | > 10 µM | > 10 µM | > 10 µM | – | – | – | –
c1nc2c(-c3cn[nH]c3)ccc(-c3ccc(N(C4CC4)[C@@H]4C[C@H]5CC[C@@H](C4)N5)nn3)c2s1 [Compound 389, (exo)-N-cyclopropyl-N-{6-[4-(1H-pyrazol-4-yl)-1,3-benzothiazol-7-yl]pyridazin-3-yl}-8-azabicyclo [3.2.1] octan-3-amine] | 0.1 to 1 µM | 0.1 to 1 µM | < 0.1 µM | – | – | – | – | – | – | –
C[C@@H]1C[C@H](N(C)c2ccc(-c3ccc(-c4cn[nH]c4)c(=O)[nH]3)nn2)CCN1 [Compound 901] | – | – | – | – | – | – | > 10 µM | > 10 µM | > 10 µM | > 10 µM
CN(c1ccc(-c2ccc(-c3cn[nH]c3)c3nc[nH]c23)nn1)[C@@H]1C[C@H]2CC[C@@H](C1)N2 [Compound 163] | > 10 µM | > 10 µM | > 10 µM | – | – | – | – | – | – | –
